According to US20240051936A1, “ISOINDOLINONE COMPOUNDS” (Monte Rosa Therapeutics, Inc., priority 2021, published 2024):
pIC50: −log10 of the molar value. Read-outs that look alike come from different tables or passages of the source.

How the values were obtained:
GSPT1 = GSPT1 (Homo sapiens (Human), UniProt P15170+Q96SW2); test: Immunofluorescence assay for GSPT1 degradation in CAL-Si cells; assay type: cell-based; settings: CAL-Si cells
Procedure: The compounds were tested in an immunofluorescence assay for their activity to bind to degrade GSPT1. CAL-Si cells were purchased from DSMZ (cat. Number ACC302), sub-cultured in 90% Dulbecco's MEM (4.5 g/L glucose, Gibco 11965)+10% heat inactivated FBS (BioConcept, 2-01F136I) and incubated at 37° C., 5% CO2. For the assay, imaging microtiterplate Cell Carrier 96 Ultra (Perkin Elmer 6055302) were pre-coated with Fibronectin (Sigma F085, 30 μl at 0.2 μg/ml) in PBS (100 μl, Gibco 14190) for 45 min at room temperature, rinsed with PBS and CAL-Si cells (30K cells/well) were plated and let to adhere overnight. Cells were treated with compounds typically using a serial dilution ranging from 30 μM to 0.1 nM for 6 hours. Compounds were stored at 10 mM DMSO stocks. Vehicle (DMSO), positive (CC-885, 10 μM) and rescue controls (positive control plus 0.2 μM bortezomib) were also included at this stage. Cells were subsequently rinsed with PBS and fixed in 10% Formalin solution (50 μl, Sigma HT5011)) for 20 mins at room temperature. Following three consecutive PBS washes (100 μl), cells were permeabilized in 0.1% Triton X-100 in PBS (Sigma 93443, 50 μl) for 15 mins at room temperature. Following three further PBS washes, 50 μl blocking buffer (1% BSA, Sigma A4503, in PBS) was added for 45 min for signal-to-noise reduction.
Primary antibody (human GSPT1, Sigma HPA052488) was diluted in blocking buffer (dil.1/300, 35 μl/well) and incubated with the cells overnight at 4° C. After three PBS washes, Alexa-fluor 488 coupled secondary antibodies (Invitrogen, A32731, dil.1/1000), Alexa-fluor 647-Phalloïdin (Invitrogen, A22287, dil.1/200) and DAPI (Thermo, #62248, dil.1/1000) were diluted in blocking buffer and incubated with the samples for 2 hours at room temperature. After three final PBS washes, samples were conserved in 100 μl PBS in the dark, until measurement. Image acquisition was performed on the Operetta High-Content Imager (Perkin-Elmer). Fluorescence intensity of Alexa-Fluor 488 (GSPT1), Alexa-Fluor 647 (Actin) and DAPI (Nucleus) were measured. For the determination of GSPT1 DC50 values, a custom algorithm implemented in the PerkinElmer image analysis software Harmony-Acapella® was developed. After user-defined setting of adjustment parameters, the analysis was run identically without human intervention for all image fields. DAPI staining of the nuclei was used to determine the location of cells using standard nuclei detection modules. Segmentation artifacts were removed by threshold-based filters for area, roundness and intensity. The outline of the cells was determined analogously from the sum of the normalized, smoothed DAPI and Actin channel, starting from each nucleus. The Alexa-Fluor 488 (GSPT1) signal intensity in each cell was finally measured, in order to obtain a Mean intensity per cell. GSPT1 degradation (DC50) was calculated after normalization to controls and data import in CDD vault Database, using non-linear regression.

[1] = molecular target: Full length wild-type cereblon CRBN (Homo sapiens (Human), UniProt Q96SW2); test: Fluorescence polarization (FP) assay, cereblon binding
Sequence of Full length wild-type cereblon CRBN (Q96SW2 whole entry): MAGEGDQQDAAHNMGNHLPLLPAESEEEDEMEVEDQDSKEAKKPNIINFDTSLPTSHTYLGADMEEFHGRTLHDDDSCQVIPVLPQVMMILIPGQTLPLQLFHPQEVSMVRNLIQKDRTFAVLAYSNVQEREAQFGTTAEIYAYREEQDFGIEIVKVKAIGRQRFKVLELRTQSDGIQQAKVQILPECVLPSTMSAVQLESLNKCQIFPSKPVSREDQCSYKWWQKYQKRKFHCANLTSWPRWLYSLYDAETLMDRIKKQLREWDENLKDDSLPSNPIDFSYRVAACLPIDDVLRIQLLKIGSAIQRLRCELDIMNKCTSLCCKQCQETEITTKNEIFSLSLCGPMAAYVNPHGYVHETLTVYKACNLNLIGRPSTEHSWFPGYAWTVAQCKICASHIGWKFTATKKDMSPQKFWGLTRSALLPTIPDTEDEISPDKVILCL
Procedure: Compound activity was monitored in a fluorescence polarization (FP) homogeneous assay using 1-[5-({2-[2-(2-{[2-(2,6-dioxopiperidin-3-yl)-1,3-dioxo-2,3-dihydro-1H-isoindol-4-yl]oxy}acetamido)ethoxy]ethyl}carbamoyl)pentyl]-3,3-dimethyl-2-[(1E,3E)-5-[(2E)-1,3,3-trimethyl-5-sulfo-2,3-dihydro-1H-indol-2-ylidene]penta-1,3-dien-1-yl]-3H-indol-1-ium-5-sulfonate as a fluorescent probe. Unless otherwise stated, all reagents were purchased from Sigma Aldrich. Enzymatic reactions were conducted in Perkin-Elmer Black 384 well ProxiPlate Plus (catalogue no. 6008269) in 10 sL total volume. Full length wild-type cereblon CRBN (80.0 nM, 10 sL) was incubated in assay buffer containing 20 mM HEPES (pH 8.0), […], 0.5 mM TCEP and 0.05% Tween 20 in the presence or absence of compound (300 nL). Inhibitors were stored as 10 mM DMSO stocks in an inert environment (low humidity, dark, low oxygen, room temperature) using the Storage Pod System.
Compounds and DMSO were dispensed using the Echo E5XX (Labcyte Inc. USA) to give concentrations from 300 to 0.937 or 3000 to 9.3 nM in a 12 data point curve. […] Following incubation at room temperature for 30 min, the assay was initiated by dispensing the probe to a final concentration of 5 nM (2.5 nL of a 20 μM stock) using the Echo E5XX. FP was measured after a period of 12 hours using a Pherastar plate reader (BMG Labtech, Germany) exciting at 590 nm and measuring the amount of parallel and perpendicular light at 675 nm. The FP signal was subsequently normalized to the no-compound control (i.e., DMSO). Analysis and IC50 values were derived using Dotmatics (Dotmatics UK) software.

[2] = compounds with code A, read-out: DC50 value code
[3] = treated 6 hours, read-out: Code, activity for GSPT1 degradation (DC50)
[4] = wild-type CRBN 80.0 nM, probe 5 nM, FP measured after 12 hours, read-out: rFP IC50
[5] = cereblon binding, bound, read-out: IC50 value

Sequence of GSPT1 (P15170 whole entry): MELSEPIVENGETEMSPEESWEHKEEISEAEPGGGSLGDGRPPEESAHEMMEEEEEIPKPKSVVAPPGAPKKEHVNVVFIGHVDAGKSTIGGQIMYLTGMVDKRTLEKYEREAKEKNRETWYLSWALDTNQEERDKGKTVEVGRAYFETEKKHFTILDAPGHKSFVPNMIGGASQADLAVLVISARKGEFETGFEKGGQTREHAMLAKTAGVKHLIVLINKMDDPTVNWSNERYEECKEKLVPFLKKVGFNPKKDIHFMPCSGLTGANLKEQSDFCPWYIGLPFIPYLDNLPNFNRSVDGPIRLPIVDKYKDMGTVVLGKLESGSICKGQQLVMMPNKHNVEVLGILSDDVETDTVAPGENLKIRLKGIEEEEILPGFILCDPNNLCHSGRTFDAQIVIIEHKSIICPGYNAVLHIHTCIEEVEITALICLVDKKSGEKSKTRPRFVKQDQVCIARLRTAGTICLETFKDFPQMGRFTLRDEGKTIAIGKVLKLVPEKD
Sequence of GSPT1 (Q96SW2 whole entry): as the sequence (Q96SW2 whole entry) above
Sequence of GSPT1 (Q16531 whole entry partner): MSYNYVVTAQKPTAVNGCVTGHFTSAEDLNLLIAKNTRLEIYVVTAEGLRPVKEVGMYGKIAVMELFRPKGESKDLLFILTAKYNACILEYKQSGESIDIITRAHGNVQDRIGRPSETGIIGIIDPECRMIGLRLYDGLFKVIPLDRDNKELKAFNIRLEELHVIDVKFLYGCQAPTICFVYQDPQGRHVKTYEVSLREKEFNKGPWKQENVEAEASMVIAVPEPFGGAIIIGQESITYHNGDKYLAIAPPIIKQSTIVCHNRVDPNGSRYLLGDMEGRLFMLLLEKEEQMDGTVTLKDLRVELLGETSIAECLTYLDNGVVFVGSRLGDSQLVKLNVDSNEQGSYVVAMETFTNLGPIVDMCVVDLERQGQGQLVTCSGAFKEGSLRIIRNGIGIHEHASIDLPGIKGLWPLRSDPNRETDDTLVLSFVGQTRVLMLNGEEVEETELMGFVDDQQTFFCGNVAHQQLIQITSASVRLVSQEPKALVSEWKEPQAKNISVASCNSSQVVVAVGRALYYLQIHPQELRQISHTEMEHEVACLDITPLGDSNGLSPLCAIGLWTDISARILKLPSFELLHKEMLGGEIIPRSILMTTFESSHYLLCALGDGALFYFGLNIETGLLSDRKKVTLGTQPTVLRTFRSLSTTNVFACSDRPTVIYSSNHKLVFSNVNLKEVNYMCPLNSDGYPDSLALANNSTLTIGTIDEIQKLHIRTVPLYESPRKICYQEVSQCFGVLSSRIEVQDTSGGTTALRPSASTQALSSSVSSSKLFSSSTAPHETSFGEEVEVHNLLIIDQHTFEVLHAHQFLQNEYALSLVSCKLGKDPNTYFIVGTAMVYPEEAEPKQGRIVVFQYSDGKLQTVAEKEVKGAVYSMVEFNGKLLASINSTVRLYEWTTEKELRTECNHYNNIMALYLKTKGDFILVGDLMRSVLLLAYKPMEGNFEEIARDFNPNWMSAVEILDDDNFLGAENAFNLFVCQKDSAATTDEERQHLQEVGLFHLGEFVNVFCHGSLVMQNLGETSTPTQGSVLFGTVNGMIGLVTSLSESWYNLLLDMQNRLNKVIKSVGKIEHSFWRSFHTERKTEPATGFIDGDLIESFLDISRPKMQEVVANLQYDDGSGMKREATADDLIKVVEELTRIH

SMILES	DC50 (GSPT1; [2]) [µM]	DC50 (GSPT1; [3]) [µM]	pIC50 [1, 4]	pIC50 [1, 5]
O=C1CCC(N2Cc3c(F)cc(COC(=O)Nc4ccc(-c5ccccc5)nc4)cc3C2=O)C(=O)N1 (stereo not shown) [Compound 8, (2-(2,6-dioxopiperidin-3-yl)-7-fluoro-3-oxoisoindolin-5-yl)methyl(6-phenylpyridin-3-yl)carbamate]	< 0.03	< 0.03	< 5.72	
O=C1CCC(N2Cc3c(F)cc(COC(=O)Nc4ccc(-c5ccccn5)cc4)cc3C2=O)C(=O)N1 (stereo not shown) [Compound 11, (2-(2,6-dioxopiperidin-3-yl)-7-fluoro-3-oxoisoindolin-5-yl)methyl (4-(pyridin-2-yl)phenyl)carbamate]	< 0.03	< 0.03	≥ 6.22	> 6.22
O=C1CCC(N2Cc3c(F)cc(COC(=O)Nc4cc(F)cc(OC(F)(F)F)c4)cc3C2=O)C(=O)N1 (stereo not shown) [Compound 12, (2-(2,6-dioxopiperidin-3-yl)-7-fluoro-3-oxoisoindolin-5-yl)methyl(3-fluoro-5-(trifluoromethoxy)phenyl)carbamate]		0.03 to 0.3	< 5.72	
CC1(c2ccc(NC(=O)OCc3cc(F)c4c(c3)C(=O)N(C3CCC(=O)NC3=O)C4)cc2)CC1 (stereo not shown) [Compound 13, (2-(2,6-dioxopiperidin-3-yl)-7-fluoro-3-oxoisoindolin-5-yl)methyl (4-(1-methylcyclopropyl)phenyl)carbamate]		0.03 to 0.3	< 5.72	
O=C1CCC(N2Cc3c(F)cc(COC(=O)Nc4cccc(OC(F)(F)F)c4)cc3C2=O)C(=O)N1 (stereo not shown) [Compound 15, (2-(2,6-dioxopiperidin-3-yl)-7-fluoro-3-oxoisoindolin-5-yl)methyl (3-(trifluoromethoxy)phenyl)carbamate]		0.03 to 0.3	< 5.72	
CC1CCCCN1c1ccc(NC(=O)OCc2cc(F)c3c(c2)C(=O)N(C2CCC(=O)NC2=O)C3)cn1 (stereo not shown) [Compound 16, (2-(2,6-dioxopiperidin-3-yl)-7-fluoro-3-oxoisoindolin-5-yl)methyl (6-(2-methylpiperidin-1-yl)pyridin-3-yl)carbamate]	< 0.03	< 0.03	5.92 to 6.22	> 6.22
O=C1CCC(N2Cc3c(F)cc(COC(=O)Nc4ccc(-c5ccccc5F)nc4)cc3C2=O)C(=O)N1 (stereo not shown) [Compound 18, (2-(2,6-dioxopiperidin-3-yl)-7-fluoro-3-oxoisoindolin-5-yl)methyl(6-(2-fluorophenyl)pyridin-3-yl)carbamate]	< 0.03	< 0.03	5.72 to 5.92	> 6.22
Cc1ccccc1-c1ccc(NC(=O)OCc2cc(F)c3c(c2)C(=O)N(C2CCC(=O)NC2=O)C3)cn1 (stereo not shown) [Compound 19, (2-(2,6-dioxopiperidin-3-yl)-7-fluoro-3-oxoisoindolin-5-yl)methyl (6-(o-tolyl)pyridin-3-yl)carbamate]	< 0.03	< 0.03	≥ 6.22	> 6.22
O=C1CCC(N2Cc3c(F)cc(COC(=O)Nc4cccc(OC5CC5)c4)cc3C2=O)C(=O)N1 (stereo not shown) [Compound 21, (2-(2,6-dioxopiperidin-3-yl)-7-fluoro-3-oxoisoindolin-5-yl)methyl (3-cyclopropoxyphenyl)carbamate]	< 0.03	< 0.03	5.72 to 5.92	> 6.22
O=C1CCC(N2Cc3c(F)cc(COC(=O)Nc4cc(-c5ccccc5)ccn4)cc3C2=O)C(=O)N1 (stereo not shown) [Compound 24, (2-(2,6-dioxopiperidin-3-yl)-7-fluoro-3-oxoisoindolin-5-yl)methyl(4-phenylpyridin-2-yl)carbamate]		0.03 to 0.3	< 5.72	
CC(C)(C)c1cccc(NC(=O)OCc2cc(F)c3c(c2)C(=O)N(C2CCC(=O)NC2=O)C3)c1 (stereo not shown) [Compound 25, (2-(2,6-dioxopiperidin-3-yl)-7-fluoro-3-oxoisoindolin-5-yl)methyl (3-(tert-butyl)phenyl)carbamate]	< 0.03	< 0.03	< 5.72	
